Results taken from article PMC9486808 (ACS Chemical Biology, 2022).
“Also recorded” adds a separate entry of the source. Like-named read-outs stand apart in the source and are kept apart here. Positions of bridges follow the written chain, without caps; N, C: chain ends. Non-standard residues stand in square brackets, D forms with d. Residues, ends and D or L forms follow the SMILES beside them.

Key:
H1 ectodomain [1] = target: T1, H1 ectodomain (Influenza A virus, UniProt C3W5S1); experiment: biochemical; format: binding, Influenza A virus A/California/04/2009 (H1N1)
H1 HA = H1 HA (Influenza A virus, UniProt C3W5S1); format: binding, Influenza A virus A/California/04/2009 (H1N1)
H1 ectodomain [2] = target: T1, H1 ectodomain; experiment: biochemical; format: binding, Influenza A virus A/California/04/2009 (H1N1); conditions: read-out: Kd1
H1stem = format: binding, Influenza A virus A/Kentucky/UR06-0258/2007 (H1N1); conditions: read-out: Kd1
H3 ectodomain = format: binding, Influenza A virus A/Fujian/411/2002 (H3N2); conditions: for Kd: read-out: Kd1
[3] = test system: H1N1pdm09 (A/Netherlands/602/2009); format: cell-based, Influenza A virus
[4] = test system: H1N1pr8 (A/PR8/8/34/Mount Sinai); format: cell-based, Influenza A virus
[5] = test system: H3N1 virus carrying H3 HA of A/Bilthoven/1761/76 (H3N2) in the H1N1pr8 background; format: cell-based, Influenza A virus
[6] = target: H1 ectodomain of A/California/04/2009 (H1N1) (Influenza A virus, UniProt C3W5S1); format: binding, Influenza A virus A/California/04/2009 (H1N1)
[7] = test system: H1N1pdm09 (A/Netherlands/602/2009); conditions: for IC50: 16 h
[8] = test system: H5N1 virus carrying H5 HA of A/duck/Hunan/795/2002 in the H1N1pr8 genetic background; conditions: 16 h
in vitro = conditions: HeLa R19 cells and MDCKI cells
[9] = test system: H5N1 virus carrying H5 HA of A/duck/Hunan/795/2002 in the H1N1pr8 genetic background; format: cell-based, Influenza A virus
H1N1pdm09 = test system: H1N1pdm09; design: species or system Influenza A virus
[10] = target: full-length H1 of A/California/04/2009 (H1N1) (Influenza A virus, UniProt C3W5S1); format: cell-based, Influenza A virus A/California/04/2009 (H1N1); conditions: pH 5

Row | Compound | Kd (H1 ectodomain [1]) [nM] | ΔTm (°C), purified peptide (H1 HA) [°C] | Kd (H1 ectodomain [2]) [nM] | Kd (H1stem) [nM] | Peptide binding by SPR (in words) (H3 ectodomain) | Kd (H3 ectodomain) [nM] | Inhibition of infection (infected cells relative to untreated control) [3] | Inhibition of infection (infected cells relative to untreated control) [4] | Inhibition of infection (infected cells relative to untreated control) [5] | Binding region in the HA stem (HDX-MS) [6] | Inhibition of infection at a single concentration [7] | IC50 [7] [nM] | IC50 [8] [nM] | CC50 at 72 h (in vitro) [nM] | ΔTm (°C), crude peptide (H1 HA) [°C] | Inhibition of infection (infected cells relative to untreated control) [9] | Interference of the peptide itself with hemagglutination (H1N1pdm09) | Loss of hemagglutination after pH 5 incubation (H1N1pdm09; pH 5) | Syncytia formation (cell-cell fusion) [10] | Neutralizing activity in the presence of serum proteins [7]
1 | CC(C)[C@@H]1NC(=O)[C@H](Cc2c[nH]c3ccccc23)NC(=O)[C@H](CCCNC(=N)N)NC(=O)[C@H](Cc2ccc(O)cc2)NC(=O)CSC[C@@H](C(=O)NCC(N)=O)NC(=O)[C@H](C(C)C)NC(=O)[C@H](C(C)C)NC(=O)[C@H](Cc2ccccc2)NC(=O)[C@H](Cc2ccc(O)cc2)NC(=O)[C@@H]2CCCN2C(=O)[C@H](CCC(=O)O)NC(=O)[C@H](CO)NC(=O)[C@H](Cc2ccccc2)NC(=O)[C@H](Cc2ccccc2)NC(=O)[C@H](CO)NC(=O)[C@H]([C@@H](C)O)NC(=O)[C@H](Cc2c[nH]c3ccccc23)NC1=O [L4] ({CH2CO}-YRWVWTSFFSEPYFVVCG-NH2; thioether N-17) | ≤ 1 | 3.4 | 20.8 ± 1.4 | 2.6 ± 0.1 | no binding was observed | > 50 | strongly inhibited infection | strongly inhibited infection | fell short of inhibiting | aa 369–387 | strong inhibition of infection | 104 ± 10.3 | 234 ± 66 | > 5000 |  |  |  |  |  | 
2 | CC[C@H](C)[C@@H]1NC(=O)[C@H](CCCCN)NC(=O)[C@H](CO)NC(=O)[C@H](Cc2c[nH]c3ccccc23)NC(=O)[C@H](Cc2ccc(O)cc2)NC(=O)[C@H]([C@@H](C)CC)NC(=O)[C@H](CCCCN)NC(=O)[C@H](CC(C)C)NC(=O)[C@@H](Cc2ccc(O)cc2)NC(=O)CSC[C@@H](C(=O)NCC(N)=O)NC(=O)[C@H](Cc2c[nH]c3ccccc23)NC(=O)[C@H](CCC(=O)O)NC(=O)[C@H](CO)NC(=O)[C@H](C(C)C)NC(=O)[C@H](CC(C)C)NC(=O)CNC(=O)[C@H](Cc2c[nH]cn2)NC1=O [S3] ({CH2CO}-[dY]LKIYWSKIHGLVSEWCG-NH2; thioether N-17) | ≤ 1 | 4.2 | 16.8 ± 0.6 | 37.2 ± 18.8 | no binding was observed | > 50 | strongly inhibited infection | strongly inhibited infection | fell short of inhibiting | aa 369–387 | strong inhibition of infection | 47.5 ± 7.1 | 17.5 ± 1.7 | > 5000 | 3.8 |  |  |  |  | 
3 | CC(C)C[C@@H]1NC(=O)[C@H](C(C)C)NC(=O)[C@@H](Cc2ccc(O)cc2)NC(=O)CSC[C@@H](C(=O)NCC(N)=O)NC(=O)[C@H](C(C)C)NC(=O)[C@H](Cc2c[nH]c3ccccc23)NC(=O)[C@H](Cc2c[nH]cn2)NC(=O)[C@H]([C@@H](C)O)NC(=O)[C@H](C)NC(=O)[C@H](CC(C)C)NC(=O)[C@H]([C@@H](C)O)NC(=O)CNC(=O)[C@H](Cc2c[nH]cn2)NC(=O)[C@H](CC(=O)O)NC(=O)[C@H](Cc2c[nH]c3ccccc23)NC(=O)[C@H](CCCNC(=N)N)NC(=O)[C@H](Cc2ccccc2)NC1=O [S5] ({CH2CO}-[dY]VLFRWDHGTLATHWVCG-NH2; thioether N-17) | ≤ 1 | 7.8 | 8.6 ± 1.1 | 11.3 ± 2.5 | no binding was observed | > 50 | strongly inhibited infection | strongly inhibited infection | fell short of inhibiting | aa 369–387 | strong inhibition of infection |  |  | > 5000 | 4.8 | cross-neutralization was observed | does not interfere with hemagglutination | prevented by S5 | greatly reduced; also recorded: inhibits fusion between H1 expressing cells | unaffected by the addition of serum proteins
